Results reported in ChEMBL document CHEMBL3046624, “Synthesis, single crystal X-ray studies and antimicrobial activities of novel Indole barbiturates” (Med Chem Res, 2012).
Calls of active or inactive are those of the source. The rule behind the calls is not given here.

Experiments:
Assay type in all cases: functional, organism-based
Proteus vulgaris [1] = assay: Growth inhibition of Proteus vulgaris at 100 ug/ml by cup-plate method
Proteus vulgaris [2] = assay: Growth inhibition of Proteus vulgaris at 300 ug/ml by cup-plate method
Pseudomonas aeruginosa [3] = assay: Growth inhibition of Pseudomonas aeruginosa at 200 ug/ml by cup-plate method
Escherichia coli [4] = assay: Growth inhibition of Escherichia coli at 100 ug/ml by cup-plate method
Bacillus subtilis [5] = assay: Growth inhibition of Bacillus subtilis at 300 ug/ml by cup plate method
Pseudomonas aeruginosa [6] = assay: Growth inhibition of Pseudomonas aeruginosa at 300 ug/ml by cup-plate method
Proteus vulgaris [7] = assay: Growth inhibition of Proteus vulgaris at 200 ug/ml by cup-plate method
Staphylococcus aureus [8] = assay: Growth inhibition of Staphylococcus aureus at 100 ug/ml by cup-plate method
Candida albicans [9] = assay: Growth inhibition of Candida albicans at 200 ug/ml by cup-plate method
Staphylococcus aureus [10] = assay: Growth inhibition of Staphylococcus aureus at 300 ug/ml by cup-plate method
Candida albicans [11] = assay: Growth inhibition of Candida albicans at 300 ug/ml by cup-plate method
Bacillus subtilis [12] = assay: Growth inhibition of Bacillus subtilis at 100 ug/ml by cup plate method
Escherichia coli [13] = assay: Growth inhibition of Escherichia coli at 200 ug/ml by cup-plate method
Pseudomonas aeruginosa [14] = assay: Growth inhibition of Pseudomonas aeruginosa at 100 ug/ml by cup-plate method
Bacillus subtilis [15] = assay: Growth inhibition of Bacillus subtilis at 200 ug/ml by cup plate method
Candida albicans [16] = assay: Growth inhibition of Candida albicans at 100 ug/ml by cup-plate method
Staphylococcus aureus [17] = assay: Growth inhibition of Staphylococcus aureus at 200 ug/ml by cup-plate method
Escherichia coli [18] = assay: Growth inhibition of Escherichia coli at 300 ug/ml by cup-plate method
Saccharomyces cerevisiae [19] = assay: Growth inhibition of Saccharomyces cerevisiae at 100 ug/ml by cup-plate method
Saccharomyces cerevisiae [20] = assay: Growth inhibition of Saccharomyces cerevisiae at 200 ug/ml by cup-plate method
Saccharomyces cerevisiae [21] = assay: Growth inhibition of Saccharomyces cerevisiae at 300 ug/ml by cup-plate method

Structure (SMILES) | growth inhibition (GI) (Proteus vulgaris [1]) | growth inhibition (GI) (Proteus vulgaris [2]) | growth inhibition (GI) (Pseudomonas aeruginosa [3]) | growth inhibition (GI) (Escherichia coli [4]) | growth inhibition (GI) (Bacillus subtilis [5]) | growth inhibition (GI) (Pseudomonas aeruginosa [6]) | growth inhibition (GI) (Proteus vulgaris [7]) | growth inhibition (GI) (Staphylococcus aureus [8]) | growth inhibition (GI) (Candida albicans [9]) | growth inhibition (GI) (Staphylococcus aureus [10]) | growth inhibition (GI) (Candida albicans [11]) | growth inhibition (GI) (Bacillus subtilis [12]) | growth inhibition (GI) (Escherichia coli [13]) | growth inhibition (GI) (Pseudomonas aeruginosa [14]) | growth inhibition (GI) (Bacillus subtilis [15]) | growth inhibition (GI) (Candida albicans [16]) | growth inhibition (GI) (Staphylococcus aureus [17]) | growth inhibition (GI) (Escherichia coli [18]) | growth inhibition (GI) (Saccharomyces cerevisiae [19]) | growth inhibition (GI) (Saccharomyces cerevisiae [20]) | other results
CC1(C)S[C@@H]2[C@H](NC(=O)[C@H](N)c3ccccc3)C(=O)N2[C@H]1C(=O)O | Active | Active | Active | Active | Active | Active | Active | Active | inactive | Active | inactive | Active | Active | Active | Active | inactive | Active | Active | – | – | –
O=C1NC(=O)C(=Cc2c(-c3ccccc3)n(CC(=O)c3ccc(Br)cc3)c3ccccc23)C(=O)N1 | Active | Active | Active | Active | Active | Active | Active | Active | Active | Active | Active | Active | Active | Active | Active | Active | Active | Active | Active | Active | growth inhibition (GI) (Saccharomyces cerevisiae [21]): Active
O=C1NC(=O)C(=Cc2c(-c3ccccc3)n(CC(=O)c3ccccc3)c3ccccc23)C(=O)N1 | Active | Active | Active | inactive | inactive | Active | inactive | inactive | inactive | inactive | inactive | inactive | inactive | Active | inactive | inactive | inactive | inactive | Active | Active | growth inhibition (GI) (Saccharomyces cerevisiae [21]): Active
O=C1NC(=O)C(=Cc2c(-c3ccccc3)n(CC(=O)c3ccc(Cl)cc3)c3ccccc23)C(=O)N1 | Active | Active | Active | Active | Active | Active | Active | Active | Active | Active | Active | Active | Active | Active | Active | Active | Active | Active | Active | Active | growth inhibition (GI) (Saccharomyces cerevisiae [21]): Active
C=CCn1c(-c2ccccc2)c(C=C2C(=O)NC(=O)NC2=O)c2ccccc21 | Active | Active | Active | Active | Active | Active | Active | Active | Active | Active | Active | Active | Active | Active | Active | Active | Active | Active | Active | Active | growth inhibition (GI) (Saccharomyces cerevisiae [21]): Active
O=C1NC(=O)C(=Cc2c(-c3ccccc3)n(CC(=O)c3ccc(-c4ccccc4)cc3)c3ccccc23)C(=O)N1 | inactive | Active | inactive | Active | Active | Active | Active | Active | inactive | Active | inactive | Active | Active | inactive | Active | inactive | Active | Active | Active | Active | growth inhibition (GI) (Saccharomyces cerevisiae [21]): Active
CC(=O)N1CCN(c2ccc(OCC3COC(Cn4ccnc4)(c4ccc(Cl)cc4Cl)O3)cc2)CC1 (stereo not given) | – | – | – | – | – | – | – | – | Active | – | Active | – | – | – | – | Active | – | – | Active | Active | growth inhibition (GI) (Saccharomyces cerevisiae [21]): Active
COc1ccc(C(=O)Cn2c(-c3ccccc3)c(C=C3C(=O)NC(=O)NC3=O)c3ccccc32)cc1 | Active | Active | Active | inactive | Active | Active | Active | inactive | Active | inactive | Active | inactive | inactive | Active | inactive | Active | inactive | inactive | inactive | inactive | growth inhibition (GI) (Saccharomyces cerevisiae [21]): Active
